The target of series [1] is T1, C334ACYP101 (Pseudomonas putida, UniProt P00183, C335A). As to the kind of experiment: biochemical. It is filed as binding.
The target of series [2] is T1, C334ACYP101. As to the kind of experiment: biochemical. It is filed as binding. The source holds these as a separate data set.
The target in series [3] is T1, C334ACYP101. In kind it is binding. The conditions noted are these: for K4 apparent equilibrium constant: product (P) binding to ES; for K4 apparent equilibrium constant / K2 apparent equilibrium constant: pH 7.4, 24°C; for K2 apparent equilibrium constant: product binding to E; for K1K4: product of constants, ESP formed via ES.
Series [4] deals with CYP101.
The target of series [5] is T2, CYP2B4 (Oryctolagus cuniculus, UniProt P00178). Particulars: pH 7.4.
In series [6] the target is T2, CYP2B4.
The target of series [7] is T2, CYP2B4. Particulars: cited from earlier work.
Series [8] has as its system CYP2B4. The conditions noted are these: cited from earlier work.
Series [9] concerns CYP2C9. Particulars: cited from earlier work.
Series [10] deals with CYP2C9. The conditions noted are these: cited from earlier work. The source holds these as a separate data set.
Series [11] deals with CYP3A4. The conditions noted are these: cited from earlier work.
Series [12] deals with CYPC21 (steroid C-21 hydroxylase of bovine adrenocortical microsomes). The conditions noted are these: low spin to five coordinated high spin; cited from earlier work.
Series [13] deals with CYP73As. The conditions noted are these: cinnamate hydroxylation; cited from earlier work.

Read-outs that look alike come from different tables or passages of the source. Some results are limits rather than exact numbers.

T1 sequence (P00183 whole entry C335A): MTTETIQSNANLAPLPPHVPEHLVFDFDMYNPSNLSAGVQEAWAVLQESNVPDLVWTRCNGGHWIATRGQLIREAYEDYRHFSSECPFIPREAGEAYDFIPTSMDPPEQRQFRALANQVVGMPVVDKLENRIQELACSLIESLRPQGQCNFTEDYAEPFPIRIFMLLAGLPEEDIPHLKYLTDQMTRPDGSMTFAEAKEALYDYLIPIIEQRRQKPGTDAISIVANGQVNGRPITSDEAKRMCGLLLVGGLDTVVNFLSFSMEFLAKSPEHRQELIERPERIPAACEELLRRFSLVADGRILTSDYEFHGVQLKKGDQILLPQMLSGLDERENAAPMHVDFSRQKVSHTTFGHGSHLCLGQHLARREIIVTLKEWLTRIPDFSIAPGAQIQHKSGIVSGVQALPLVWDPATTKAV
T2 sequence (P00178 whole entry): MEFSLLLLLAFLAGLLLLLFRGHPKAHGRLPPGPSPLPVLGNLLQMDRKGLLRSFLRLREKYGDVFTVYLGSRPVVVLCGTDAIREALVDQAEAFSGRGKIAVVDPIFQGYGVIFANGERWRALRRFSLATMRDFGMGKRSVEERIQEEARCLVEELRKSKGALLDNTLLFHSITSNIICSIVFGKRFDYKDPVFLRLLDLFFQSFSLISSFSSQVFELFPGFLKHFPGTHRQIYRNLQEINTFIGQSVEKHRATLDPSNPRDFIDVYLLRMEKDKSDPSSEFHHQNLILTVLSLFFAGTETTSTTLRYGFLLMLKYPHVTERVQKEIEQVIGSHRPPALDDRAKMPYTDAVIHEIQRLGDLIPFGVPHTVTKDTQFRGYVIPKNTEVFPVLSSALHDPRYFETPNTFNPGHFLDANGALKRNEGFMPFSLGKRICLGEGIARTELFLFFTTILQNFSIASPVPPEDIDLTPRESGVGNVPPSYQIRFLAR

Take `O=C1C2CC3CC(C2)CC1C3` [2 Adone, 2-Adamantanone]: the Kd was found to be 2.9 ± 0.2 µM in series [1] and 6 ± 2 µM in series [2] (KD^APP Transient, C334ACYP101, 10-13°C jump, 0.05 M K-PO4 buffer + 0.1 M KCl).
In the case of `CC1(C)[C@H]2CC(=O)[C@]1(C)C[C@H]2O` [5exo OH Camphor, 5-exo-OH camphor], the “K4 apparent equilibrium constant” value in [3] (OHcam 38 uM) was “.012 ± .001 µM⁻¹”; in series [3] (OHcam 66 uM), “.0078 ± .0005 µM⁻¹”; in [3] (OHcam 100 uM), “.0063 ± .0004 µM⁻¹”; in series [3] (OHcam 133 uM) it was “.0039 ± .0003 µM⁻¹”. Besides, the “K2 apparent equilibrium constant” value is “.039 ± .002 µM⁻¹” in series [3] (OHcam 38 uM), “.030 ± .004 µM⁻¹” in [3] (OHcam 66 uM), “.034 ± .002 µM⁻¹” in series [3] (OHcam 100 uM) and “.034 ± .002 µM⁻¹” in series [3] (OHcam 133 uM). The K1K4 result is on record as “.0080” in [3] (OHcam 38 uM), “.0049” in [3] (OHcam 66 uM), “.0043” in series [3] (OHcam 100 uM) and “.0024” in series [3] (OHcam 133 uM).
As to `CC12CCC(CC1=O)C2(C)C` (stereo not drawn) [Cam, Camphor], the Kd in series [1] was 4.8 ± 0.8 µM; in series [2] (KD^APP Kinetic), 6.2 ± 0.9 µM; in [2] (KD^APP Transient), 5 ± 0.5 µM. The “peak to trough ratio of Type I difference spectrum” value in series [4] is approximately 0.87.
Molecule `C[C@H](Cc1ccccc1)NCc1ccccc1` [DesBNZ, desmethylbenzphetamine] yielded a Kd in [5] of 701 ± 150 µM. For the same molecule, the “binding of product formed in situ” value in series [6] was “remains bound”. Also, in series [7], the “time of Site II re-ligation to form the final Type II complex (slow phase)” value is recorded as not above 20 milliseconds. In series [8], the “strength of hetero atom binding to Site II (L6)” value is recorded as “as strongly as water”.
Consider `CC(C(=O)O)c1ccc(-c2ccccc2)c(F)c1` (stereo not drawn) [Flurbiprofen, flurbiprofen], for which, in [9], the “Type I spectral change in the CYP2C9” value is reported as “elicits”.
Consider `Nc1ccc(S(=O)(=O)c2ccc(NO)cc2)cc1` [N-hydroxydapsone], for which, in series [10], the “effect on coupling efficiency of flurbiprofen hydroxylation” value is on record as “enhanced” and the “effect on flurbiprofen hydroxylation” value is on record as “stimulating”.
As for `COc1cc2c(c3oc(=O)c4c(c13)CCC4=O)[C@@H]1C=CO[C@@H]1O2` [aflatoxin B1], the “effect on metabolism of α-NF by CYP3A4” value in series [11] is “has no effect”.
As to `C[C@]12CCC(=O)C=C1CC[C@@H]1[C@@H]2CC[C@]2(C)C(=O)CC[C@@H]12` [androstenedione], the “Type I spectral change” value in [12] is reported as “elicited”.
As to `O=C(O)/C=C/c1ccc(O)cc1` [coumerate], the “product inhibition of substrate hydroxylation” value in series [13] is recorded as “not observable”.
As for `Nc1ccc(S(=O)(=O)c2ccc(N)cc2)cc1` [dapsone], in series [10], the “effect on coupling efficiency of flurbiprofen hydroxylation” value is listed as “enhanced” and the “effect on flurbiprofen hydroxylation” value is recorded as “stimulating”. Besides, the “Type I spectral change in the CYP2C9” value in series [9] (static spectroscopy) is reported as “does not elicit”.
On to `C[C@]12CC[C@H]3[C@@H](CCC4=CC(=O)CC[C@@]43C)[C@@H]1CC[C@@H]2O` [testosterone], for which the “effect on metabolism of midazolum by CYP3A4” value in [11] was “inhibits”.
`O=c1cc(-c2ccccc2)oc2c1ccc1ccccc12` [α-NF, α-naphthoflavone]: the “effect on metabolism of aflatoxin B1 by CYP3A4” value in series [11] was “activates”.

The record behind these values is publication PMC2826162 (Expert opinion on drug metabolism & toxicology, 2010).
